According to ChEMBL document CHEMBL1147928, “Engineering small molecule specificity in nearly identical cellular environments” (Bioorg Med Chem Lett, 2007):

What was measured:
[1] = Cytotoxicity against mouse wild type fibroblast cells by MTT assay; format: cell-based
[2] = test system: MEF; assay: Cytotoxicity against FKBP deficient MEF cells by MTT assay; format: cell-based; conditions: Mus musculus

Structure (SMILES): CN(Cc1cnc2nc(N)nc(N)c2n1)c1ccc(C(=O)NC(CCC(=O)O)C(=O)O)cc1 (single isomer, unassigned) [METHOTREXATE]
- IC50 [1]: 180 nM
- IC50 [2]: 120 nM
